Measurements as given in US20220323437A1, “METHODS FOR TREATING PULMONARY ARTERIAL HYPERTENSION” (ACTELION PHARMACEUTICALS LTD, priority 2019, published 2022).
Read-outs that look alike come from different tables or passages of the source.

Columns and labels:
[1] = Pharmacokinetics of selexipag and ACT-333679 after oral and i.v. selexipag in subjects with stable PAH (Phase 3 switch study); assay type: in vivo, human; settings: for AUC / Cmax: human, plasma, steady state; for AUC: read-out: AUCτ, ss Geom. Mean; for Cmax: read-out: Cmax, ss Geom. Mean
Procedure: This was a prospective, multicenter, open-label, single-sequence, cross-over, Phase 3 study. Based on the dose of selexipag received at study entry, subjects were allocated to one of the following groups, selexipag 200-1000 μg b.i.d. or selexipag 1200-1600 μg b.i.d. See, FIG. 1. The study comprised the following periods:
(ii) Treatment and observation period: The treatment and observation period included the following consecutive periods: • Period 1 included oral selexipag pre-treatment period for 1 day, in-hospital. This period started with intake of the morning dose of oral selexipag on Day 1 at Visit 2 and ended the following day, before initiation of the first infusion of i.v. selexipag. • Period 2 included i.v. selexipag treatment period for 36 hours [3 infusions], in-hospital. This period started in the morning of Day 2 at Visit 2 with the start of the first infusion of i.v. selexipag and ended in the evening of Day 3 at Visit 2 before the evening administration of oral selexipag. Administration of oral selexipag was interrupted during the i.v. selexipag treatment period. • Period 3 included oral selexipag post-treatment period for 7 to 11 day. This period started in the evening of Day 3 at Visit 2 with the administration of oral selexipag and ended 7-11 days later, at Visit 3.
Selexipag was provided as a dry powder to be reconstituted as an injectable solution for i.v. administration. Before administration, selexipag dry powder was to be reconstituted and diluted with sterile 0.9% NaCl solution. Each subject received an i.v. selexipag dose that corresponded to the subject's individual stable dose of oral selexipag. […] See, Table 4.
The intravenous infusion took place over a 87-minute period (2 infusions on Day 2 and 1 infusion on Day 3)
The following PK endpoints were analyzed for selexipag and its active metabolite, ACT-333679, after oral selexipag in Period 1 and after i.v. selexipag administration in Period 2. See, FIG. 2. • The area under the plasma-concentration time curve (AUC) during a dose interval at steady state (AUCτ, ss). • The maximum plasma concentration at steady state (Cmax, ss). • The time to reach maximum plasma concentration at steady state (tmax, ss). • Trough plasma concentration at steady state (Ctrough, ss).

[2] = Vital signs, ECG, laboratory variables and WHO FC during switch from oral to i.v. selexipag in subjects with stable PAH; assay type: in vivo, human
Procedure: This was a prospective, multicenter, open-label, single-sequence, cross-over, Phase 3 study. Based on the dose of selexipag received at study entry, subjects were allocated to one of the following groups, selexipag 200-1000 μg b.i.d. or selexipag 1200-1600 μg b.i.d. See, FIG. 1. The study comprised the following periods: (ii) Treatment and observation period: The treatment and observation period included the following consecutive periods: • Period 1 included oral selexipag pre-treatment period for 1 day, in-hospital. This period started with intake of the morning dose of oral selexipag on Day 1 at Visit 2 and ended the following day, before initiation of the first infusion of i.v. selexipag. • Period 2 included i.v. selexipag treatment period for 36 hours [3 infusions], in-hospital. This period started in the morning of Day 2 at Visit 2 with the start of the first infusion of i.v. selexipag and ended in the evening of Day 3 at Visit 2 before the evening administration of oral selexipag. Administration of oral selexipag was interrupted during the i.v. selexipag treatment period. • Period 3 included oral selexipag post-treatment period for 7 to 11 day. This period started in the evening of Day 3 at Visit 2 with the administration of oral selexipag and ended 7-11 days later, at Visit 3. The endpoints analyzed for (i) Period 1, Period 2, and Period 3 and follow-up period combined (ii) Period 1 and Period 2 combined, and (iii) Period 2 and Period 3 combined included discontinuations due to prostacyclin-associated AEs, discontinuations due to any AEs, AEs and SAEs, prostacyclin-associated AEs, PAH-related AEs, change from baseline in vital signs (systolic blood pressure [SBP], diastolic blood pressure [DBP], and pulse rate) and body weight, ECG abnormalities, marked laboratory abnormalities, and change from baseline in WHO FC.

[3] = selexipag versus placebo; cited from earlier work
[4] = Period 1 (oral selexipag), total, N = 20
[5] = Period 2 (iv selexipag), total, N = 20
[6] = Period 2, high dose cohort (1200-1600 μg), N = 12
[7] = Period 2, low dose cohort (200-1000 μg), N = 8
[8] = Period 3 (oral selexipag) + Follow-up, total, N = 20

Compound: CC(C)N(CCCCOCC(=O)NS(C)(=O)=O)c1cnc(-c2ccccc2)c(-c2ccccc2)n1 [selexipag, 2-{4-[(5,6-diphenylpyrazin-2-yl)(propan-2-yl)amino]butoxy}-N-(methanesulfonyl)acetamide]
- tmax, ss between the i.v. and oral selexipag periods ([1]; Period 2 vs Period 1): comparable
- slope of dose proportional increase in exposure ([1]; after i.v. selexipag, 450-1800 μg b.i.d. dose range): 0.798
- AUC ([1]; iv, Period 2 (i.v. selexipag)): 18.8 ng·h/mL
- Cmax ([1]; iv, Period 2 (i.v. selexipag)): 7.8 ng/mL
- AUC ([1]; Period 1 (oral selexipag)): 8.7 ng·h/mL
- Cmax ([1]; Period 1 (oral selexipag)): 3.9 ng/mL
- dose-normalized geometric mean ratio (i.v./oral selexipag) for AUCτ, ss (90% CI) ([1]; i.v. to oral dose ratio 1.125): 2.13 (1.67, 2.70)
- dose-normalized geometric mean ratio (i.v./oral selexipag) for Cmax, ss (90% CI) ([1]; i.v. to oral dose ratio 1.125): 1.98 (1.62, 2.43)
- Incidence of DBP < 50 (mmHg) [2, 4]: 0 n (%)
- Incidence of DBP decrease from baseline > 20 (mmHg) [2, 4]: 1 (5.0) n (%)
- Incidence of DBP ≥ 100 (mmHg) [2, 4]: 0 n (%)
- Incidence of SBP < 90 (mmHg) [2, 4]: 0 n (%)
- Incidence of SBP decrease from baseline > 40 (mmHg) [2, 4]: 0 n (%)
- Incidence of SBP ≥ 160 (mmHg) [2, 4]: 0 n (%)
- subjects with QTcF prolongation to >450 ms ([2]; Period 2): 3 subjects
- subjects with QTcF prolongation to >480 ms ([2]; Period 2): 4 subjects
- Incidence of DBP < 50 (mmHg) [2, 5]: 5 n (%)
- Incidence of DBP decrease from baseline > 20 (mmHg) [2, 5]: 3 n (%)
- Incidence of DBP ≥ 100 (mmHg) [2, 5]: 0 n (%)
- Incidence of SBP < 90 (mmHg) [2, 5]: 2 n (%)
- Incidence of SBP decrease from baseline > 40 (mmHg) [2, 5]: 2 n (%)
- Incidence of SBP ≥ 160 (mmHg) [2, 5]: 1 n (%)
- mean change from pre- to post-infusion in heart rate ([2]; Period 2, infusion 1): 2.1 bpm
- mean change from pre- to post-infusion in heart rate ([2]; Period 2, infusion 2): 0.1 bpm
- mean change from pre- to post-infusion in heart rate ([2]; Period 2, infusion 3): 3.5 bpm
- Incidence of DBP < 50 (mmHg) [2, 6]: 3 n (%)
- Incidence of DBP decrease from baseline > 20 (mmHg) [2, 6]: 2 n (%)
- Incidence of DBP ≥ 100 (mmHg) [2, 6]: 0 n (%)
- Incidence of SBP < 90 (mmHg) [2, 6]: 1 n (%)
- Incidence of SBP decrease from baseline > 40 (mmHg) [2, 6]: 1 n (%)
- Incidence of SBP ≥ 160 (mmHg) [2, 6]: 1 n (%)
- Incidence of DBP < 50 (mmHg) [2, 7]: 2 (25.0) n (%)
- Incidence of DBP decrease from baseline > 20 (mmHg) [2, 7]: 1 (12.5) n (%)
- Incidence of DBP ≥ 100 (mmHg) [2, 7]: 0 n (%)
- Incidence of SBP < 90 (mmHg) [2, 7]: 1 (12.5) n (%)
- Incidence of SBP decrease from baseline > 40 (mmHg) [2, 7]: 1 (12.5) n (%)
- Incidence of SBP ≥ 160 (mmHg) [2, 7]: 0 n (%)
- Incidence of DBP < 50 (mmHg) [2, 8]: 0 n (%)
- Incidence of DBP decrease from baseline > 20 (mmHg) [2, 8]: 2 (10.0) n (%)
- Incidence of DBP ≥ 100 (mmHg) [2, 8]: 0 n (%)
- Incidence of SBP < 90 (mmHg) [2, 8]: 0 n (%)
- Incidence of SBP decrease from baseline > 40 (mmHg) [2, 8]: 0 n (%)
- Incidence of SBP ≥ 160 (mmHg) [2, 8]: 0 n (%)
- subjects (of the 7 with QTcF prolongation in Period 2) who already had QTcF prolongation to >450 ms in Period 1 ([2]; Visit 2 Day 2 prior to the start of i.v. infusion): 6
- AE of hypotension ([2]; any subject): no AE of hypotension
- changes in systolic blood pressure of >40 mmHg ([2]; any subject): No changes
- hemoglobin, mean change from baseline ([2]; at Visit 3 (Day 12±2 days)): 1.2 g/L
- hemoglobin, mean change from baseline ([2]; baseline (129.4 g/L) to Visit 2 Day 3): -5.7 g/L
- changes in WHO FC ([2]; during the study, any subject): No changes
- changes from baseline in other hematology and clinical chemistry variables ([2]; human, in vivo): unremarkable
- risk of the primary composite end point of death or a complication related to pulmonary arterial hypertension [3]: significantly lower
